Source: article PMC12311259, “Antifibrotic effects of specific targeting of the 5‐hydroxytryptamine 2B receptor (5‐HT2BR) in murine models and ex vivo models of scleroderma skin” (Arthritis & Rheumatology (Hoboken, N.j.), 2025)

Assays:
Adrenergic α1B (hu) = molecular target: T1, Adrenergic α1B (hu) (Homo sapiens, UniProt P35368); assay: Functionality assay, IP1, Eurofins Panlabs 302060; type: cell-based
T1 construct: Eurofins Panlabs 302060
Text: (§1) Effects were considered significant if AM1476's mean value was three or more SDs above the vehicle control mean in the agonist assay or three or more SDs below the positive control agonist (5‐nM α‐methylserotonin) mean in the antagonist assay. AM1476 was screened for selectivity against approximately 200 targets using a Eurofins Panlabs Spectrum screen panel including enzymatic and receptor binding assays.

[1] = cGvHD mice, 28 days repeated oral once daily administration
Protocol: After repeated oral administration for 28 days, whole blood was collected from each treatment group 15 minutes, 30 minutes, and 1, 2, 4, 6, 8, and 24 hours after a final morning dose (two animals were used for each time point), and plasma was separated from blood within 30 minutes.

[2] = tested on: cGvHD-induced pulmonary fibrosis; assay: Sclerodermatous cGvHD mouse model, pulmonary fibrosis; type: in vivo
Protocol: AM1476 was dissolved in sterile distilled water for the ex vivo and in vivo experiments. A concentration of 30 μM was applied for the ex vivo experiment. For the in vivo experiments, 1, 3, or 10 mg/kg was administered orally once or twice daily.
The B10.D2→BALB/c (H‐2d) minor histocompatibility antigen–mismatched model was performed as described.[9], [10] Briefly, female BALB/c (H‐2d) mice were purchased from Janvier. Male B10.D2 (H‐2d) mice were initially purchased from Jackson Laboratory. All mice were maintained in specific pathogen‐free conditions with sterile pellet food and water and a normal day–night cycle. For isolation of unfractionated bone marrow cells, tibial and femoral bones were prepared under sterile conditions. Phosphate buffered saline (PBS) was used to flush bone marrow cells from bone marrow cavities. Subsequently, bone marrow cells were filtered through 70‐μm nylon meshes (BD Biosciences), followed by erythrocyte hemolysis. The remaining bone marrow cells were kept on ice until transplantation. Transplantation of bone marrow cells and splenocytes was performed as follows: Recipient mice (BALB/c [H‐2d]) eight weeks of age received total body irradiation with 750 cGy. Six hours after irradiation, all BALB/c (H‐2d) recipients received bone marrow from either BALB/c (H‐2d) in a syngeneic transplantation manner or B10.D2 (H‐2d) in an allogeneic transplantation manner. For transplantation, 5 × 10[6] splenocytes and 2 × 10[6] bone marrow cells from donor mice were resuspended in 0.2 mL of PBS and injected via tail veins.[9], [10] […] The outcome of treatment was analyzed seven weeks after transplantation. Eight mice per group were analyzed.
Skin samples were fixed in 4% formalin for six hours and embedded in paraffin. […] The dermal thickness was quantified on H&E‐stained sections using images captured with a light microscope (Nikon eclipse 80i) at 100‐fold magnification by manually measuring the distance between the epidermal‐dermal junction and the dermal‐subcutaneous fat junction at four sites per mouse.[15], [16] […] Histologic readouts were evaluation of the fibrotic area as the percentage of the total lung area in sirius red–stained sections (two sections per mouse) and quantification of pulmonary changes using the Ashcroft score (four sections per mouse).[17], [18]
The amount of collagen protein in skin and lung samples was determined by hydroxyproline assay.[19], [20] […] The absorbance was determined at 557 nm with a Spectra MAX 190 microplate spectrophotometer. Absolute values were determined using a standard curved generated with type I collagen (Sigma‐Aldrich).

[3] = tested on: Bleomycin-induced pulmonary fibrosis; assay: Bleomycin-induced pulmonary fibrosis in mice; type: in vivo, mouse
Protocol: Pulmonary fibrosis was induced by a single intratracheal instillation of bleomycin (25 μg in 50 μL of 0.9% NaCl).[12] Treatment was initiated at two weeks after the first injection of bleomycin. AM1476 was administered orally at 1, 3, or 10 mg/kg once daily. Solvent (double‐distilled water) was used as a control, and nintedanib at 30 mg/kg orally every day (qd) was included as a comparator. The outcome was analyzed at two and four weeks after the first injection of bleomycin. Mice injected with 0.9% NaCl, the vehicle of bleomycin, served as nonfibrotic controls. Eight mice per group were analyzed.
Skin samples were fixed in 4% formalin for six hours and embedded in paraffin. Five‐micrometer sections were cut and stained with hematoxylin and eosin (H&E). The dermal thickness was quantified on H&E‐stained sections using images captured with a light microscope (Nikon eclipse 80i) at 100‐fold magnification by manually measuring the distance between the epidermal‐dermal junction and the dermal‐subcutaneous fat junction at four sites per mouse.[15], [16] For lung samples, the whole left lung was fixed in 4% formalin for six hours and embedded in paraffin. Five‐micrometer sections were cut and stained with trichrome and sirius red. Histologic readouts were evaluation of the fibrotic area as the percentage of the total lung area in sirius red–stained sections (two sections per mouse) and quantification of pulmonary changes using the Ashcroft score (four sections per mouse).[17], [18]
The amount of collagen protein in skin and lung samples was determined by hydroxyproline assay.[19], [20] After digestion in 6 M HCl for three hours at 120°C, the pH of the samples was adjusted to a pH range of 6–7 with 6 M NaOH. Afterward, 0.06 M chloramine T was added to each sample and incubated for 20 minutes at room temperature. Next, 3.15 M perchloric acid and 20% p‐dimethylaminobenzaldehyde were added, and samples were incubated for an additional 20 minutes at 60°C. The absorbance was determined at 557 nm with a Spectra MAX 190 microplate spectrophotometer. Absolute values were determined using a standard curved generated with type I collagen (Sigma‐Aldrich).

[4] = molecular target: T2, Serotonin (5-Hydroxytryptamine) 5-HT5A (hu) (Homo sapiens, UniProt P47898); assay: Receptor binding, Eurofins Panlabs 272100
T2 construct: Eurofins Panlabs 272100
T2 sequence (P47898 whole entry): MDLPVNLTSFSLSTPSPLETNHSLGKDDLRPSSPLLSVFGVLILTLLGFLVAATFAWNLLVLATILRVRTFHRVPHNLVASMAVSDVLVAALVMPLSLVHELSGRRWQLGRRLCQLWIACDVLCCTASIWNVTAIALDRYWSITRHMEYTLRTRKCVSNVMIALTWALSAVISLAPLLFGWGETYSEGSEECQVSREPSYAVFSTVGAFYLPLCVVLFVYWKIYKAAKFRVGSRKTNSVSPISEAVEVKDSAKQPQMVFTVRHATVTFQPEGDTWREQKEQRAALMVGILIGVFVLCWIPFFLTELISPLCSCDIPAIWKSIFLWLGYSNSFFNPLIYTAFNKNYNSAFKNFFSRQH
Text: as §1

Uptake, Dopamine (hu) = molecular target: T3, Uptake, Dopamine (hu) (Homo sapiens, UniProt Q01959); assay: Functionality assay, Uptake, Eurofins Panlabs 316010; type: cell-based
T3 construct: Eurofins Panlabs 316010
T3 sequence (Q01959 whole entry): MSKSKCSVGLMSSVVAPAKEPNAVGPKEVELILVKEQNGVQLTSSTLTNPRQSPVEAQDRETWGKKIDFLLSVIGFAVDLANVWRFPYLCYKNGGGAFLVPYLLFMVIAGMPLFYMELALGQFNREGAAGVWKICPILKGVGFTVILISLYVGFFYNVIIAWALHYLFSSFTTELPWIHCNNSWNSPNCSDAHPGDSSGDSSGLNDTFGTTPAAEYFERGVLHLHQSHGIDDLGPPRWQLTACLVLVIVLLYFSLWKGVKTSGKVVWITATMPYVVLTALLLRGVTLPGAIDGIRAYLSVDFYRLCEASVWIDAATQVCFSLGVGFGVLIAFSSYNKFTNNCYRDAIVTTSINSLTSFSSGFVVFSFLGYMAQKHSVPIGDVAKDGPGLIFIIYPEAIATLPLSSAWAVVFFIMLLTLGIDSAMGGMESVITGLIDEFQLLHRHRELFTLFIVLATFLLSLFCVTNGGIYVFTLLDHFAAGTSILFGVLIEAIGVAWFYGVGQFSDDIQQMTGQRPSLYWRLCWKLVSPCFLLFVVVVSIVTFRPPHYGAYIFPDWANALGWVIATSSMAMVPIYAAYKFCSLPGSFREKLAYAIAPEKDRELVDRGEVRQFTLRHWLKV
Text: as §1

Adrenergic β2 (hu) = molecular target: T4, Adrenergic β2 (hu) (Homo sapiens, UniProt P07550); assay: Functionality assay, Adenylyl Cyclase, Eurofins Panlabs 302150; type: cell-based
T4 construct: Eurofins Panlabs 302150
T4 sequence (P07550 whole entry): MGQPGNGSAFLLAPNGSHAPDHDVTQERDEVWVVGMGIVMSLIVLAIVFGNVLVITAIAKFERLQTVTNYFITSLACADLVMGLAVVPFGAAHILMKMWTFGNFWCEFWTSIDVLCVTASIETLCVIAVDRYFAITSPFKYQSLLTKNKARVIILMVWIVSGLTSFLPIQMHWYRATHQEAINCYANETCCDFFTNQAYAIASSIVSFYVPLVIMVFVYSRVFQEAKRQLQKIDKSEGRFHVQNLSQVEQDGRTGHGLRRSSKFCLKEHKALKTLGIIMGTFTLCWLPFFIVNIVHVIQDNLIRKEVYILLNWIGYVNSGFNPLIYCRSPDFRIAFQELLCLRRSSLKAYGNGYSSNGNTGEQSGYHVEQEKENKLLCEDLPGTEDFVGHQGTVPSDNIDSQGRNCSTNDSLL
Text: as §1

[5] = molecular target: T5, Serotonin (5-Hydroxytryptamine) 5-HT1A (hu) (Homo sapiens, UniProt P08908); assay: Receptor binding, Eurofins Panlabs 271110
T5 construct: Eurofins Panlabs 271110
T5 sequence (P08908 whole entry): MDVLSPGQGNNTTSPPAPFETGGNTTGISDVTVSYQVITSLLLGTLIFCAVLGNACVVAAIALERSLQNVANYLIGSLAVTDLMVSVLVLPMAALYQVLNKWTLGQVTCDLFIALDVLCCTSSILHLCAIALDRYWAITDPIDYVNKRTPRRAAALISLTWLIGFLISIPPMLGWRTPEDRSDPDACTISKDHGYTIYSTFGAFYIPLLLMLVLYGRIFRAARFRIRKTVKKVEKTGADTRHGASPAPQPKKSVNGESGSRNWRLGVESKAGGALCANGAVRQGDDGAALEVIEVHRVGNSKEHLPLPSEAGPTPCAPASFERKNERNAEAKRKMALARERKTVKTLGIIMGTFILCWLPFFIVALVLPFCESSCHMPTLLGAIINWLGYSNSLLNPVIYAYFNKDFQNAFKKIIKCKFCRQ
Text: as §1

[6] = tested on: Sodium Channel, Site 2 (gp); assay: Functionality assay, Eurofins Panlabs 475010; type: biochemical, guinea pig
Text: as §1

Adrenergic α1A (hu) = molecular target: T6, Adrenergic α1A (hu) (Homo sapiens, UniProt P35348); assay: Functionality assay, IP1, Eurofins Panlabs 302040; type: cell-based
T6 construct: Eurofins Panlabs 302040
T6 sequence (P35348 whole entry): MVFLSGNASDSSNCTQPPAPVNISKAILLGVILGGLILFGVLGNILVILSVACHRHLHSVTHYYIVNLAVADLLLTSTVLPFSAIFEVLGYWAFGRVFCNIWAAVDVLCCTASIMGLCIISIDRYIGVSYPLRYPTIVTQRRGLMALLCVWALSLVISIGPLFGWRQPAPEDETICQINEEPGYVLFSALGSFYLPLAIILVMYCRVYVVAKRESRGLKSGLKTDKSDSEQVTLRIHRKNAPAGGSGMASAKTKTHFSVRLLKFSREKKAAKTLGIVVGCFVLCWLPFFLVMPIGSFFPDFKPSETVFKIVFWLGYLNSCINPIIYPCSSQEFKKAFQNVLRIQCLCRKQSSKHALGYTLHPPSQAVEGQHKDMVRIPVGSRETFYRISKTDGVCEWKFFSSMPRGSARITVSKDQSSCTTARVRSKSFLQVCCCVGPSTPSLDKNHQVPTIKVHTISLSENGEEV
Text: as §1

[7] = all three doses, vs vehicle-treated mice seven weeks after BMT
[8] = all doses (1, 3, 10 mg/kg orally once daily), vs vehicle-treated bleomycin-challenged mice

T1 sequence (P35368 whole entry): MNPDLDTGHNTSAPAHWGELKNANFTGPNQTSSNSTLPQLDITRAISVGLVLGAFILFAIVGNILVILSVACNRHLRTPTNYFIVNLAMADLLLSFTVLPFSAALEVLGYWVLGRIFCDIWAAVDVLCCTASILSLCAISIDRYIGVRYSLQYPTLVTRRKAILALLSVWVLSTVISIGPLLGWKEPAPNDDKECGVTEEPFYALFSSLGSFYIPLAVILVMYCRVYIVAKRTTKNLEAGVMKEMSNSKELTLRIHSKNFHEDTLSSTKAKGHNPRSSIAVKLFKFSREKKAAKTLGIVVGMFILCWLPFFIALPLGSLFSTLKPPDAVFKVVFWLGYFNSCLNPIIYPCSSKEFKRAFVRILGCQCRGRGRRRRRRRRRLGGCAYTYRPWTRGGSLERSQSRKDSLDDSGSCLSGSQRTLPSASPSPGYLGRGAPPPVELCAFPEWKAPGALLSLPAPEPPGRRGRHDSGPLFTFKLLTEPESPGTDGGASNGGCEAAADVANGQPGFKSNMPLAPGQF

Compound: C[C@@H]1CN(C(=N)N)N=C1c1ccc(F)cc1O [AM1476]
- IC50 (Adrenergic α1B (hu)): 9.53 µM
- agonistic activity, Adrenergic α1B (Adrenergic α1B (hu); at 30 µM): No significant agonistic activity at 30 µM
- level of systemic exposure (free plasma concentration) vs IC50 of mouse 5-HT2BR antagonistic activity [1]: exceeded the IC50
- hydroxyproline levels, lung, vs mice killed three weeks after BMT ([2]; 10 mg/kg qd): below those of mice killed three weeks after BMT
- Ashcroft scores [2, 7]: reduced
- collagen-covered lung area [2, 7]: reduced
- hydroxyproline content, lung [2, 7]: reduced
- antifibrotic effects relative to comparator, across the different readouts ([3]; AM1476 1, 3, 10 mg/kg orally once daily): comparable to those of nintedanib
- Ashcroft scores [3, 8]: decreases
- collagen-covered area [3, 8]: decreases
- hydroxyproline content [3, 8]: decreases
- % Inhibition at 1 µM, 5-HT5A (hu) ([4]; 1 µM (value in brackets)): 10%
- % Inhibition at 10 µM, 5-HT5A (hu) ([4]; 10 µM): 70%
- IC50 (Uptake, Dopamine (hu)): > 30 µM
- IC50 (Adrenergic β2 (hu)): 154 µM
- agonistic activity, Adrenergic β2 (Adrenergic β2 (hu); at 300 µM): No significant agonistic activity at 300 µM
- % Inhibition at 10 µM, 5-HT1A (hu) [5]: 16%
- IC50 [6]: > 30 µM
- agonistic activity, Sodium Channel, Site 2 ([6]; at 30 µM): No significant agonistic activity at 30 µM
- IC50 (Adrenergic α1A (hu)): 4.34 µM
- agonistic activity, Adrenergic α1A (Adrenergic α1A (hu); at 300 µM): No significant agonistic activity at 300 µM
